Calls of active or inactive are those of the source. The calls are words filed in the database; no cut-off is given here.

The record followed here is ChEMBL document CHEMBL5380834, “Design, Synthesis, and Biological Evaluation of Androgen Receptor (AR) Antagonist-Heat Shock Protein 90 (Hsp90) Inhibitor Conjugates for Targeted Therapy of Castration-Resistant Prostate Cancer” (J Med Chem, 2023).

For data set [1], the system named is CWR22R. Kind of data set: Induction of apoptosis in human 22Rv1 cells assessed as increase in caspase-3 level at 1 uM measured after 48 hrs by Western blot analysis. Format: functional, cell-based. Background: Immunoblotting shows a protein as a band on a membrane.
The test system of data set [2] is CWR22R. Kind of data set: Antitumor activity against human 22Rv1 cells xenografted in BALB/c nude mouse assessed as downregulation of AR-FL level at 2.5 mg/kg, ip administered once every 4th day for 3 weeks. Format: functional, organism-based. (In general: In xenograft studies the graft and the host belong to different species.)
A short description of data set [3]: Downregulation of AR-regulated FKBP5 protein level in human LNCaP cells at 300 nM measured for 48 hrs in presence of AR agonist, R1881 in charcoal stripped serum by Western blot analysis relative to control. Format: functional.
Data set [4] in a line: Toxicity in ICR mouse assessed as spleen damage at 30 to 50 mg/kg, iv administered every second day for 14 days. It is filed as organism-based. The conditions noted are these: in vivo, 336 h, dose 30-50 mg/kg, time 14 day.
Data set [5] has as its system LNCaP. Kind of data set: Induction of apoptosis in human LNCaP cells assessed as increase in caspase-3 level at 1 uM measured after 48 hrs by Western blot analysis. It is filed as functional, cell-based.
A short description of data set [6]: Biodistribution in BALB/c mouse plasma xenografted with human 22Rv1 cells at 2.5 mg/kg, iv measured at 0.5 to 1 hrs. The conditions noted are these: in vivo, time 0.5-1 hrs. Format: ADME, organism-based, CWR22R.
A short description of data set [7]: Biodistribution in BALB/c mouse muscle tissue xenografted with human 22Rv1 cells at 2.5 mg/kg, iv measured at 0.5 to 1 hrs. Format: ADME, organism-based, CWR22R. Conditions: in vivo, time 0.5-1 hrs.
Data set [8] is described as follows: Biodistribution in BALB/c mouse liver xenografted with human 22Rv1 cells at 2.5 mg/kg, iv measured at 0.5 to 1 hrs. Format: ADME, organism-based, CWR22R. The conditions noted are these: in vivo, time 0.5-1 hrs.
Data set [9] can be described thus: Toxicity in ICR mouse assessed as liver damage at 30 to 50 mg/kg, iv administered every second day for 14 days. Format: organism-based. The conditions noted are these: in vivo, 336 h, dose 30-50 mg/kg, time 14 day.
Data set [10] has as its system LNCaP. The data set can be described thus: Downregulation of AR-regulated PSA protein level in human LNCaP cells measured for 48 hrs in presence of AR agonist, R1881 in charcoal stripped serum by Western blot analysis. The conditions noted are these: dose 300-1000 nM. It is filed as functional, cell-based.
The test system of data set [11] is LNCaP. The data set can be described thus: Antitumor activity against human LNCaP cells xenografted in BALB/c nude mouse assessed as downregulation of AR-FL level at 5 mg/kg, ip administered once every 4th day for 3 weeks and measured at 2 hrs post dose. It is filed as functional, organism-based.
Data set [12] is described as follows: Biodistribution in BALB/c mouse tumor xenografted with human 22Rv1 cells at 2.5 mg/kg, iv measured at 0.5 to 1 hrs. It is filed as ADME, organism-based, Neoplasm, CWR22R. Conditions: in vivo, time 0.5-1 hrs.
Data set [13] is described as follows: Toxicity in ICR mouse assessed as animal weight loss at 30 to 50 mg/kg, iv administered every second day for 14 days. Format: organism-based. The conditions noted are these: in vivo, 336 h, dose 30-50 mg/kg, time 14 day.
Data set [14] is described as follows: Toxicity in ICR mouse assessed as heart damage at 30 to 50 mg/kg, iv administered every second day for 14 days. Format: organism-based. The conditions noted are these: in vivo, 336 h, dose 30-50 mg/kg, time 14 day.
Data set [15] can be described thus: Biodistribution in BALB/c mouse lung xenografted with human 22Rv1 cells at 2.5 mg/kg, iv measured at 0.5 to 1 hrs. Format: ADME, organism-based, CWR22R. The conditions noted are these: in vivo, time 0.5-1 hrs.
Data set [16] is described as follows: Downregulation of AR-regulated TMPRSS2 protein level in human LNCaP cells at 300 nM measured for 48 hrs in presence of AR agonist, R1881 in charcoal stripped serum by Western blot analysis relative to control. Format: functional.
Data set [17] deals with LNCaP. The data set can be described thus: Antitumor activity against human LNCaP cells xenografted in BALB/c nude mouse assessed as downregulation of TMPRSS2 level at 5 mg/kg, ip administered once every 4th day for 3 weeks and measured at 2 hrs post dose. Format: functional, organism-based.
The subject of data set [18] is LNCaP. Kind of data set: Antitumor activity against human LNCaP cells xenografted in BALB/c nude mouse assessed as downregulation of PSA level at 5 mg/kg, ip administered once every 4th day for 3 weeks and measured at 2 hrs post dose. Format: functional, organism-based.
Data set [19] has as its system Androgen receptor (Homo sapiens), P10275 [UNDEFINED MUTATION]. Kind of data set: Induction of AR-V7 degradation in human 22Rv1 cells measured upto 24 hrs by Western blot analysis. Format: cell-based. Conditions: dose 1000.0 nM.

Sequence of Androgen receptor (Homo sapiens), P10275 [UNDEFINED MUTATION] (P10275 whole entry, looked up, change not shown): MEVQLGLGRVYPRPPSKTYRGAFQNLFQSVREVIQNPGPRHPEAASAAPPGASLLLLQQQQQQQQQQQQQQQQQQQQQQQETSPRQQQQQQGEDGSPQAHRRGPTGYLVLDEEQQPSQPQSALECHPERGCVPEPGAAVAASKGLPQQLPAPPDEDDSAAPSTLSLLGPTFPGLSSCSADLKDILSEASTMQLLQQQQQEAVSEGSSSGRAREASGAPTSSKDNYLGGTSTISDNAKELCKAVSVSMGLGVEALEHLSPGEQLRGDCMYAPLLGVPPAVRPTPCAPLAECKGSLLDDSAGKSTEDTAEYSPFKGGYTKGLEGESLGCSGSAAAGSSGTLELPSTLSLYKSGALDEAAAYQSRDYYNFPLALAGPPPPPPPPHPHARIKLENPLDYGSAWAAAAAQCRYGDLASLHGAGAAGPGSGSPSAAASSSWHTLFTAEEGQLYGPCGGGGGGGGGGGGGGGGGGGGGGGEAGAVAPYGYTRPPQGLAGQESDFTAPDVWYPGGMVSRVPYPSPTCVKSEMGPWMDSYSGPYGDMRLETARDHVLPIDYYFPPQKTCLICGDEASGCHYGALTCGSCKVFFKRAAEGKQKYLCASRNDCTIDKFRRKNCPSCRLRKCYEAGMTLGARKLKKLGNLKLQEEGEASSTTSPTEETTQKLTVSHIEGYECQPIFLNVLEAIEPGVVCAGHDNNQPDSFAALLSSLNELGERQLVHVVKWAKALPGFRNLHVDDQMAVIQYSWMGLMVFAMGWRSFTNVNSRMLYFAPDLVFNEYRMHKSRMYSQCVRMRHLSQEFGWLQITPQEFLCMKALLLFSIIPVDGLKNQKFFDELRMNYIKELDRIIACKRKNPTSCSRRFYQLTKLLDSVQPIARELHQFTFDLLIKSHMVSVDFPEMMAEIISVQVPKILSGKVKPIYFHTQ

Regarding `CC(C)c1cc(-c2n[nH]c(=O)n2-c2ccc(CN3CCN(CC4CCN(c5ccc(C(=O)N[C@H]6CC[C@H](Oc7ccc(C#N)c(Cl)c7)CC6)nn5)CC4)CC3)cc2)c(O)cc1O`, the result in the data set on CWR22R [1], with CWR22R [2], in the data set on LNCaP [5], with LNCaP [11], with LNCaP [17] and in the data set with LNCaP [18] was Active. In addition, the Activity is above 50% in data set [3]; “Non-Toxic” in data set [4]; “Non-Toxic” in data set [9]; “Dose-Dependent Effect” with LNCaP [10]; “Non-Toxic” in data set [13]; “Non-Toxic” in [14]. Moreover, the figures for the Activity in data set [16] and in data set [19] were above 50% and “Dose-Dependent Effect”, respectively. For the same compound, the Drug uptake entry in data set [6], in data set [7], in [8], in data set [12] and in data set [15] was “Active” in each case.
